Assay [1] concerns the target SARS-CoV-2 3CL protease (Severe acute respiratory syndrome coronavirus 2, UniProt P0DTD1). The experiment in a line: biochemical. Particulars: 50% SARS-CoV-2 3CL protease inhibitory concentration, read-out: IC50.
In assay [2] the test system is SARS-CoV-2. Put plainly: microbe, parasite or virus in culture. The class given is cell-based. Particulars: Severe acute respiratory syndrome coronavirus 2, VeroE6/TMPRSS2, 72 h, 50% SARS-CoV-2 infected cell death inhibitory concentration, VeroE6/TMPRSS2 cells, 3 days culture.

Each structure is given as a SMILES string. Read-outs that look alike come from different tables or passages of the source. Bounds are passed on as bounds.

Regarding `Cn1cnc(Cn2c(=O)nc(Nc3cc4cn(C)nc4cc3F)n(Cc3cc(F)c(F)cc3F)c2=O)n1` [II-0519], the half-maximal inhibitory concentration (IC50) in assay [1] (given as class symbols) was less than 100 nM. This compound also displayed an EC50 in assay [2] (class symbols) of 1000 to 10000 nM.
The corresponding values for `CCOc1ccc(Nc2nc(=O)n(Cc3ccc[nH]c3=O)c(=O)n2Cc2cc(F)c(F)c(F)c2)c(Cl)c1` [Compound I-0242] are less than 100 nM and less than 1000 nM.
The corresponding values for `N#Cc1cc(Cn2c(Nc3ccc4nc(NCC(F)F)sc4c3)nc(=O)n(-c3cncc(Cl)c3)c2=O)ccc1F` [II-0129] are less than 100 nM and 1000 to 10000 nM.
For the compound `Cc1cncc(-n2c(=O)nc(Nc3ccc4nn(C)cc4c3)n(Cc3cc(C#N)ccc3C)c2=O)c1` [II-0125], in assay [1] (RapidFire MS), the IC50 came to 4.8 nM. In addition, the EC50 in assay [2] (CellTiter-Glo 2.0) turned out to be 220 nM.
Turning to `Cc1cncc(-n2c(=O)nc(Nc3cc4cn(C)nc4cc3Cl)n(Cc3ccc(F)c(C#N)c3)c2=O)c1` [II-0378], in assay [1] (given as class symbols), the IC50 was less than 100 nM. This compound also came in with a 50% effective concentration (EC50) in assay [2] (class symbols) of 1000 to 10000 nM.
For the compound `Cc1cc(F)c(C#N)cc1Cn1c(Nc2ccc3nn(C)cc3c2)nc(=O)n(-c2cncc(Cl)c2)c1=O` [II-0571], the IC50 in assay [1] (RapidFire MS) is 5.4 nM. Besides, the EC50 in assay [2] (CellTiter-Glo 2.0) stood at 190 nM.
As to `O=c1[nH]cccc1Cn1c(=O)nc(Nc2cc3cn(C4CC(F)(F)C4)nc3cc2Cl)n(Cc2cc(F)c(F)c(F)c2)c1=O` [Compound I-0470], the IC50 in assay [1] (given as class symbols) is less than 100 nM. In addition, the EC50 in assay [2] (class symbols) fell in the range of 1000 to 10000 nM.
For `N#Cc1cc(Cn2c(Nc3cc4c(cc3Cl)OCC4)nc(=O)n(Cc3cc(F)c[nH]c3=O)c2=O)ccc1F` [Compound I-0271], in that order: less than 100 nM and 1000 to 10000 nM.
Turning to `Cn1cc2cc(Nc3nc(=O)n(-c4cncc(Cl)c4)c(=O)n3Cc3ccc(F)c(C#N)c3)c(Cl)cc2n1` [II-0120], the concentration for half-maximal inhibition (IC50) in assay [1] (RapidFire MS) turned out to be 9 nM. The compound also showed an EC50 in assay [2] (CellTiter-Glo 2.0) of 127 nM.
For the compound `CC(=O)Nc1nc2cc(Cl)c(Nc3nc(=O)n(-c4cncc(C)c4)c(=O)n3Cc3ccc(F)c(C#N)c3)cc2s1` [II-0555], the IC50 in assay [1] (given as class symbols) is less than 100 nM. This compound also returned an EC50 in assay [2] (class symbols) of 1000 to 10000 nM.
In the case of `O=c1nc(Nc2cc3cn(CCO)nc3cc2Cl)n(Cc2cc(F)c(F)c(F)c2)c(=O)n1-c1cncc2ccccc12` [Compound I-0288], the IC50 in assay [1] (RapidFire MS) amounted to 5.8 nM. Further, the concentration for a half-maximal effect (EC50) in assay [2] (CellTiter-Glo 2.0) came to 747 nM.
For the compound `COc1ccc(Nc2nc(=O)n(Cc3ccc[nH]c3=O)c(=O)n2Cc2cc(F)c(F)c(F)c2)c(C)c1` [Compound I-0129], in assay [1] (given as class symbols), the IC50 is less than 100 nM. Further, the EC50 in assay [2] (class symbols) is 1000 to 10000 nM.
The corresponding values for `Cn1cc2cc(Nc3nc(=O)n(-c4cnc5ccccn45)c(=O)n3Cc3cc(F)c(F)c(F)c3)c(Cl)cc2n1` [II-0391] are less than 100 nM and 1000 to 10000 nM.
For `Cc1cncc(-n2c(=O)nc(Nc3cc4sc(NCC(F)F)nc4cc3Cl)n(Cc3ccc(F)c(C#N)c3)c2=O)c1` [II-0524], in that order: less than 100 nM and 1000 to 10000 nM.
On to `Cn1cnc(Cn2c(=O)nc(Nc3cc4cn(CC5(NC(=O)OC(C)(C)C)CC5)nc4cc3Cl)n(Cc3cc(F)c(F)c(Cl)c3)c2=O)n1` [II-0565], for which the IC50 in assay [1] (given as class symbols) was less than 100 nM. The same compound showed an EC50 in assay [2] (class symbols) of 1000 to 10000 nM.
Consider `CCn1cc2cc(Nc3nc(=O)n(-c4cncc(Cl)c4)c(=O)n3Cc3cc(C#N)ccc3C)ccc2n1` [II-0034], for which the half-inhibitory concentration (IC50) in assay [1] (RapidFire MS) came to 7.3 nM. In assay [2] (CellTiter-Glo 2.0), this compound registered a concentration giving a half-maximal response (EC50) of 234 nM.
Regarding `COc1ccc(Nc2nc(=O)n(Cc3cc4sccc4[nH]c3=O)c(=O)n2Cc2cc(F)c(F)c(F)c2)cc1` [II-0342], the concentration for half-maximal inhibition (IC50) in assay [1] (given as class symbols) is less than 100 nM. In assay [2] (class symbols), this compound returned an EC50 of 1000 to 10000 nM.
As to `Cc1cncc(-n2c(=O)nc(Nc3ccc4nc(C)n(C)c4c3)n(Cc3ccc(F)c(C#N)c3)c2=O)c1` [II-0354], the IC50 in assay [1] (given as class symbols) was less than 100 nM. The EC50 in assay [2] (class symbols) was in the range of 1000 to 10000 nM.
For `CNc1cncc(-n2c(=O)nc(Nc3cc4cn(C)nc4cc3Cl)n(Cc3cc(F)c(F)c(F)c3)c2=O)c1` [II-0602], in that order: less than 100 nM and less than 1000 nM.
For `Cn1cnc(Cn2c(=O)nc(Nc3cc4cn(C)nc4cc3F)n(Cc3cc(Cl)c(F)cc3F)c2=O)n1` [II-0515], in that order: less than 100 nM and 1000 to 10000 nM.
Consider `CCn1cc2cc(Nc3nc(=O)n(-c4cncc(C)c4)c(=O)n3Cc3cc(Cl)c(F)cn3)c(Cl)cc2n1` [II-0494], for which the IC50 in assay [1] (RapidFire MS) is 24 nM. Further, the EC50 in assay [2] (CellTiter-Glo 2.0) turned out to be 878 nM.
The corresponding values for `COc1cc(F)c(C#N)cc1Cn1c(Nc2cc3cn(C)nc3cc2Cl)nc(=O)n(-c2cncc(C)c2)c1=O` [II-0093] are 12 nM and 487 nM.
For `Cn1cc2cc(Nc3nc(=O)n(-c4cncc(Cl)c4)c(=O)n3Cc3cc(F)c(F)c(C#N)c3)ccc2n1` [II-0284], in that order: 9.2 nM and 184 nM.
Regarding `CNc1nc2cc(F)c(Nc3nc(=O)n(-c4cncc(C)c4)c(=O)n3Cc3cc(F)c(F)c(F)c3)cc2s1` [II-0291], in assay [1] (given as class symbols), the IC50 was less than 100 nM. The compound further came in with an EC50 in assay [2] (class symbols) of 1000 to 10000 nM.
The corresponding values for `N#Cc1cc(F)cc(Cn2c(Nc3cc4c(cc3Cl)OCC4)nc(=O)n(Cc3ccc[nH]c3=O)c2=O)c1` [II-0029] are less than 100 nM and 1000 to 10000 nM.
The corresponding values for `Cn1cc2cc(Nc3nc(=O)n(Cc4ccc[nH]c4=O)c(=O)n3Cc3cc(F)c(F)c(C#N)c3)c(Cl)cc2n1` [Compound I-0012] are less than 100 nM and 1000 to 10000 nM.
For `Cc1cncc(-n2c(=O)nc(Nc3cc4cn(C)nc4cc3Cl)n(Cc3cc(C#N)ccc3Cc3cccc(F)c3)c2=O)c1` [II-0027], in that order: less than 100 nM and less than 1000 nM.
Turning to `Cc1cncc(-n2c(=O)nc(Nc3cc4cn(C)nc4cc3Cl)n(Cc3cc(F)c(F)cc3Cc3ccccc3)c2=O)c1` [II-0094], the IC50 in assay [1] (given as class symbols) was less than 100 nM. For the same compound, in assay [2] (class symbols), the EC50 is 1000 to 10000 nM.
In the case of `COc1ccc(Nc2nc(=O)n(Cc3cc4cc(OC)ccc4[nH]c3=O)c(=O)n2Cc2cc(F)c(F)c(F)c2)cc1` [Compound I-0100], the IC50 in assay [1] (given as class symbols) is less than 100 nM. The EC50 in assay [2] (class symbols) fell in the range of 1000 to 10000 nM.
Regarding `Cn1cc2cc(Nc3nc(=O)n(-c4cnc5ccccn45)c(=O)n3Cc3cc(F)c(F)c(Cl)c3)c(Cl)cc2n1` [II-0490], in assay [1] (RapidFire MS), the IC50 worked out at 83 nM. Also, a half-maximal response in assay [2] (CellTiter-Glo 2.0) (EC50) required 8700 nM.
As for `CNc1nc2cc(Cl)c(Nc3nc(=O)n(-c4cncc(C)c4)c(=O)n3Cc3cc(C#N)c(F)cn3)cc2s1` [II-0534], the IC50 in assay [1] (given as class symbols) is less than 100 nM. Also, the EC50 in assay [2] (class symbols) lay in the range of 1000 to 10000 nM.
As to `Cn1cnc(Cn2c(=O)nc(Nc3cc4c(F)n(C)nc4cc3Cl)n(Cc3cc(F)c(F)cc3F)c2=O)n1` [II-0455], the concentration for half-maximal inhibition (IC50) in assay [1] (RapidFire MS) worked out at 19 nM. The compound also showed a 50% effective concentration (EC50) in assay [2] (CellTiter-Glo 2.0) of 750 nM.
`CNc1nc2ccc(Nc3nc(=O)n(-c4cncc(C)c4)c(=O)n3Cc3cc(F)c(F)c(C#N)c3)cc2s1` [II-0397]: the IC50 in assay [1] (given as class symbols) was less than 100 nM. The same compound came in with an EC50 in assay [2] (class symbols) of less than 1000 nM.
The corresponding values for `Cn1cc2cc(Nc3nc(=O)n(Cc4cn(C)c(=O)[nH]c4=O)c(=O)n3Cc3cc(F)c(F)c(F)c3)c(Cl)cc2n1` [Compound I-0111] are less than 100 nM and 1000 to 10000 nM.
Take `Cn1cc2cc(Nc3nc(=O)n(Cc4ncccn4)c(=O)n3Cc3cc(Cl)c(F)cc3F)c(Cl)cc2n1` [II-0242]: in assay [1] (given as class symbols), the IC50 was less than 100 nM. In assay [2] (class symbols), this compound registered a 50% effective concentration (EC50) of less than 1000 nM.
`Cc1c2cc(Nc3nc(=O)n(Cc4ncn(C)n4)c(=O)n3Cc3cc(Cl)c(F)cc3F)c(Cl)cc2nn1C` [II-0437]: the IC50 in assay [1] (given as class symbols) is less than 100 nM. For the same compound, the half-maximal effective concentration (EC50) in assay [2] (class symbols) is less than 1000 nM.
As for `Cc1cncc(-n2c(=O)nc(Nc3cc4cn(C)nc4cc3Cl)n(Cc3cc(F)c(F)c(F)c3F)c2=O)c1` [II-0164], the IC50 in assay [1] (RapidFire MS) is 9 nM. Also, the EC50 in assay [2] (CellTiter-Glo 2.0) worked out at 195 nM.

In general, IC50 refers to the concentration that inhibits the measured activity by half. A word on the EC50: it is the concentration at which the effect is half-maximal. The low end stands for greater potency, the high end for weaker potency.

Values taken from patent US12559474B2, “Triazine derivatives having virus replication inhibitory activity and pharmaceutical composition comprising the same” (priority 2021, dated 2026).
